The values below come from US8933071B2, “Dimethyl fasudil for inducing polyploidization of megakaryocytes and for treating blood and bone marrow diseases and disorders” (Northwestern University, priority 2008, dated 2015).

Entries after “also recorded” stand apart in the source; their conditions may differ.

One test relates to Meg-01. Nature of the test: Polyploidization of Meg-01 cells. The test is classed as cell-based.
For test [1], the system named is erythroid colonies in human MPD bone marrow cultures. Format: cell-based. The settings on record: ET patient bone marrow, 14 days.
Experimental: MPDs Patient Specimens. Mononuclear cells from bone marrow of patients were obtained by informed consent from patients at Northwestern Feinberg School of Medicine. Mononuclear cells were separated from marrow with Ficoll (GE Healthcare life sciences, Piscataway, N.J.) and resuspended in IMDM (Iscove's Modified Dulbecco's Media) media without serum. The cells were stained with 0.4% trypan blue solution for 5 minutes and live cells were counted. Live cells were assayed in CFU-MK (“Colony forming units-megakaryocytes”) and BFU-E (“Burst forming unit-erythroid”) assays as well as in liquid culture.
BFU-E (Burst forming unit-erythroid) assay. Live ET bone marrow cells were added to MethoCult media (4436, StemCell Technologies, Vancouver, BC, Canada) with recombinant human EPO (erythropoeitin, 3 U/mL), recombinant human SCF (stem cell factor, 50 ng/mL), recombinant human GM-CSF (granulocyte macrophage colony-stimulating factor, 10 ng/mL) and recombinant human IL-3 (10 ng/mL). […] Cells were plated in duplicate in 35 mm culture dishes according the manufacturer's protocol. On the 14th day, red colonies composed of hemoglobinized erythroblasts were identified and scored.
The subject of test [2] is CD41-cells (all other cell types). Format: cell-based, human. Particulars: ET patient bone marrow, 5 days.
Experimental: Mononuclear cells from bone marrow of patients were obtained by informed consent from patients at Northwestern Feinberg School of Medicine. Mononuclear cells were separated from marrow with Ficoll (GE Healthcare life sciences, Piscataway, N.J.) and resuspended in IMDM (Iscove's Modified Dulbecco's Media) media without serum. The cells were stained with 0.4% trypan blue solution for 5 minutes and live cells were counted. Live cells were assayed in CFU-MK (“Colony forming units-megakaryocytes”) and BFU-E (“Burst forming unit-erythroid”) assays as well as in liquid culture.
Liquid culture. Marrow cells from ET patients were also cultured in RPMI with 10% FBS in the presence of recombinant human TPO (thrombopoeitin, 50 ng/ml). […] After 5 days, the cells were collected and stained with APC (allophycocyanin) labeled anti-human CD41 antibody (BD Biosciences San Jose, Calif.). The cells were then stained overnight with 1 μg/mL 4′,6-diamidinio-2-phenylindole (DAPI). DNA content of both CD41+ cells and CD41-negative cells was analyzed by utilizing a BD LSRII flow cytometer (BD Biosciences San Jose, Calif.).
For test [3], the system named is human AMKL leukemic cells. Kind of test: CFU-MK assay, bone marrow samples from patients with AMKL. Format: cell-based. Particulars: 5 μM, 14 days, AMKL patient bone marrow. How it is done:
FIG. 8 illustrates that DMF blocks the growth of human AMKL leukemic cells. Mononuclear cells from patients with AMKL were cultured in methylcellulose in the presence of either DMSO or 5 μM of DMF.
Data with Patient Samples. Two lead compounds were tested on samples from both MPD (myeloproliferative disease) patients and AMKL (acute megakaryocytic leukemia) patients. […] Referring to FIG. 5, bone marrow mononuclear cells from a patient with ET were cultured with two doses of DMF for 10 days. […] Referring to FIG. 8, bone marrow samples from patients with AMKL were cultured in DMSO (control) or DMF (at 5 μM) for 14 days. Colonies were stained with anti-CD41 antibody and visualized by microcopy (not shown). Total numbers of CD41+ megakaryocyte colonies are shown.
AMKL Patient Specimens. Frozen bone marrow mononuclear cells of acute megakaryocytic leukemia (AMKL) were obtained from human patients with help from the Children's Oncology Group (COG). After thawing, cells were resuspended in IMDM media without serum. The cells were stained with 0.4% trypan blue solution for 5 minutes and live cells were counted. Live cells were assayed for leukemic potential in a CFU-MK assay (details below).
CFU-MK (Colony forming units-megakarvocvtes) assay. […] Slides were scored microscopically, and megakaryocyte colonies were defined as colonies with at least three megakaryocytes.

The test system of test [4] is 6133/MPL megakaryocytic leukemia cells. Nature of the test: 6133/MPL transplant model of AMKL, pre-treatment of cells. The test is classed as in vivo, C57B1/6 mice. The source says: FIG. 9 illustrates that DMF blocks the development of AMKL in vivo. a) Histology of spleens from control and 6133/MPL transplanted mice at 20 days. b) Survival analysis of the effect of DMF pre-treatment on AMKL development in recipient mice. p<0.0005 (Log rank test). N=6 mice (vehicle (DMSO) pre-treatment) or N=7 (DMF pre-treatment) per group.
To determine whether polyploidization-inducing agents can serve as new therapies for AMKL, we established an AMKL animal model. We developed an animal model of AMKL by transplanting 6133/MPL megakaryocytic leukemia cells (35) into sub-lethally irradiated recipient C57B1/6 mice. The parental 6133 cell line, which is dependent upon TPO for survival, was derived from a leukemic mouse that expressed the AMKL t(1:22) fusion protein OTT-MAL by knock-in gene targeting. 6133 cells were then transduced with a MPLW515L expressing retrovirus, and stable TPO-independent clones were isolated. We discovered that C57B1/6 mice transplanted with 1 million 6133/MPL cells developed a fulminant AMKL within 21 days. The disease was characterized by massive infiltration of CD41+ cells in the bone marrow and spleen. These mice will be utilized as animal models to quantify the effect of small molecule inducers of polyploidization on disease progression in vivo.
To determine whether polyploidization-inducing agents can serve as new therapies for AMKL, DMF was assessed in an animal model for AMKL. To this end, an animal model of AMKL was developed by transplanting 6133/MPL megakaryocytic leukemia cells into sub-lethally irradiated recipient C57B1/6 mice. The parental 6133 cell line, which is dependent upon TPO for survival, was derived from a leukemic mouse that expressed the AMKL t(1:22) fusion protein OTT-MAL by knock-in gene targeting (35). […]
C57BL/6 mice (purchased from the Jackson Laboratory, Bar Harbor, Me.) were sub-lethally irradiated with 600 rads. […] Development of disease was assessed with presence of GFP-positive cells in the peripheral blood by FACS and by monitoring the health and body weight of the animals. […]

Test [5] has the same test system. Kind of test: 6133/MPL transplant model of AMKL, oral gavage treatment. Format: in vivo, C57B1/6 mice. Particulars: for lifespan: from day 3. How it is done: FIG. 10 illustrates that DMF prevents AMKL in vivo. N=7 per group. […] transplant recipients were treated with two daily doses of vehicle, 33 mg/kg DMF, or 66 mg/kg DMF by oral gavage. Treatment with 33 or 66 mg/kg DMF led to statistically significant extensions in leukemia free survival (p=0.003 and 0.004 respectively).
To determine whether polyploidization-inducing agents can serve as new therapies for AMKL, DMF was assessed in an animal model for AMKL. To this end, an animal model of AMKL was developed by transplanting 6133/MPL megakaryocytic leukemia cells into sub-lethally irradiated recipient C57B1/6 mice. The parental 6133 cell line, which is dependent upon TPO for survival, was derived from a leukemic mouse that expressed the AMKL t(1:22) fusion protein OTT-MAL by knock-in gene targeting (35). 6133 cells were then transduced with a MPLW515L expressing retrovirus, and stable TPO-independent clones were isolated. […] The disease was characterized by massive infiltration of CD41^+ cells in the bone marrow and spleen.
After 3 days, the mice were treated with twice daily doses of DMF for 10 days. Seven mice were utilized per experimental condition. […] With 66 mg/kg nearly 50% of the mice remained disease free for at least 70 days. In contrast, all of mice fed only water (vehicle) died of leukemia by 20 days.
C57BL/6 mice (purchased from the Jackson Laboratory, Bar Harbor, Me.) were sub-lethally irradiated with 600 rads. Mice were then anesthetized by an IP injection of mixture of Ketamine (100 mg/kg) and xylazine (5 mg/kg) 2 hours after irradiation. C57/B16 mice were intravenously injected with 1×10^6 6133/MPL cells, which were labeled with green fluorescent protein (GFP). Two different doses of DMF (33 mg/kg or 66 mg/kg) or water were administered to mice by oral gavage twice daily (b.i.d.) starting on the 3rd day after transplantation. For pre-treatment model, 6133/MPL cells were incubated with 5 μM DMF or DMSO for 24 hours. Live cells treated with DMF or […] were separated with Ficoll and transplanted into sub-lethally irradiated mice. Development of disease was assessed with presence of GFP-positive cells in the peripheral blood by FACS and by monitoring the health and body weight of the animals. Mice were sacrificed based on a protocol that includes assessment of morbidity by >20% loss of weight, severe anemia, scruffy appearance, and/or severe lethargy.

Consider dimethylfasudil [DMF], for which the induction of polyploidization result with Meg-01 is given as “potent inducer of polyploidization”. Besides, the “formation of aberrant erythroid colonies” value in test [1] was “potently blocked formation”. In addition, the “effect on CD41-cells (all other cell types)” value in test [2] is given as “no effect”. Also, the “growth of human leukemia cells (CD41+ megakaryocyte colonies)” value in test [3] is given as “potently blocked growth”. In test [4] (6133/MPL cells pre-treated with 5 μM for 24 hours before transplant), the “development/progression of AMKL in recipient mice” value was “interfered with their ability to cause a tumor; also recorded: striking and significant delay in progression of AMKL”. Also, the “time mice healthy with no signs of disease” value in test [4] (all mice implanted with cells pre-treated with 5 μM for 24 hours) is “at least 200 days”. Further, the “survival analysis p (Log rank test)” value in test [4] (pre-treatment vs vehicle (DMSO) pre-treatment) is listed as below 0.0005. Moreover, the “leukemia free survival p” value in test [5] (33 mg/kg by oral gavage vs vehicle) worked out at 0.003; in test [5] (66 mg/kg by oral gavage vs vehicle), 0.004. For the same substance, the lifespan entry in test [5] (33 mg/kg twice daily oral gavage for 10 days) and in test [5] (66 mg/kg twice daily oral gavage for 10 days) was “significant extensions in lifespan” in each case. The “mice remaining disease free for at least 70 days” value in test [5] (66 mg/kg twice daily oral gavage) is around 50%. The “long-term survival of mice” value in test [5] (feeding to mice) is “up to 50%”.
